Reference: PubChem BioAssay (NCI)
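Protocol summary: plate cells (96-well), add compound at 5 concentrations, incubate 48 h, interpolate endpoints linearly. TGI denotes the concentration required for complete inhibition of growth.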

Legend:
Experiment in all cases: NCI-60 cell line screen, 48 h
786-0 renal = test system: 786-0 renal
A498 renal = test system: A498 renal
A549 NSCLC = test system: A549 NSCLC
ACHN renal = test system: ACHN renal
CAKI-1 renal = test system: CAKI-1 renal
CCRF-CEM leukemia = test system: CCRF-CEM leukemia
DU-145 prostate = test system: DU-145 prostate
EKVX NSCLC = test system: EKVX NSCLC
HCC-2998 colon = test system: HCC-2998 colon
HCT-116 colon = test system: HCT-116 colon
HCT-15 colon = test system: HCT-15 colon
HL-60(TB) leukemia = test system: HL-60(TB) leukemia
HOP-62 NSCLC = test system: HOP-62 NSCLC
HOP-92 NSCLC = test system: HOP-92 NSCLC
HS 578T breast = test system: HS 578T breast
HT29 colon = test system: HT29 colon
IGROV1 ovarian = test system: IGROV1 ovarian
K-562 leukemia = test system: K-562 leukemia
LOX IMVI melanoma = test system: LOX IMVI melanoma
M14 melanoma = test system: M14 melanoma
MALME-3M melanoma = test system: MALME-3M melanoma
MCF7 breast = test system: MCF7 breast
MDA-MB-231 breast = test system: MDA-MB-231 breast
MDA-MB-435 = test system: MDA-MB-435
MDA-N = test system: MDA-N
MOLT-4 leukemia = test system: MOLT-4 leukemia
NCI-H23 lung = test system: NCI-H23 lung
NCI-H460 lung = test system: NCI-H460 lung
NCI-H522 lung = test system: NCI-H522 lung
NCI/ADR-RES ovarian = test system: NCI/ADR-RES ovarian
OVCAR-3 ovarian = test system: OVCAR-3 ovarian
OVCAR-4 ovarian = test system: OVCAR-4 ovarian
OVCAR-5 ovarian = test system: OVCAR-5 ovarian
OVCAR-8 ovarian = test system: OVCAR-8 ovarian
PC-3 prostate = test system: PC-3 prostate
RPMI-8226 leukemia = test system: RPMI-8226 leukemia
RXF 393 renal = test system: RXF 393 renal
SF-268 CNS = test system: SF-268 CNS
SF-295 CNS = test system: SF-295 CNS
SF-539 CNS = test system: SF-539 CNS
SK-MEL-2 melanoma = test system: SK-MEL-2 melanoma
SK-MEL-28 melanoma = test system: SK-MEL-28 melanoma
SK-MEL-5 melanoma = test system: SK-MEL-5 melanoma
SK-OV-3 ovarian = test system: SK-OV-3 ovarian
SNB-19 CNS = test system: SNB-19 CNS
SNB-75 CNS = test system: SNB-75 CNS
SR leukemia = test system: SR leukemia
SW-620 colon = test system: SW-620 colon
T-47D breast = test system: T-47D breast
TK-10 renal = test system: TK-10 renal
U251 CNS = test system: U251 CNS
UACC-257 melanoma = test system: UACC-257 melanoma
UO-31 renal = test system: UO-31 renal
BT-549 breast = test system: BT-549 breast
COLO 205 colon = test system: COLO 205 colon
KM12 colon = test system: KM12 colon
UACC-62 melanoma = test system: UACC-62 melanoma
NCI-H226 lung = test system: NCI-H226 lung
SN12C renal = test system: SN12C renal

Measured: TGI

O=C1c2ccccc2CC12Cc1cc3c(cc1C2=O)CCC3 (stereo not drawn)
not listed: BT-549 breast | COLO 205 colon | KM12 colon | UACC-62 melanoma | NCI-H226 lung | SN12C renal
> 100 µM: all other assays above

CCOP(=O)(Nc1ccc(-c2ccccc2)cc1)OCC
not listed: CCRF-CEM leukemia | HL-60(TB) leukemia | LOX IMVI melanoma | SF-539 CNS | SR leukemia | SW-620 colon | T-47D breast | NCI-H226 lung | SN12C renal
> 100 µM: all other assays above

O=[N+]([O-])c1ccccc1N=Nc1c(O)[nH]c2ccccc12
> 61.1 µM: OVCAR-4 ovarian
> 48 µM: HOP-62 NSCLC
97.6 µM: EKVX NSCLC
> 53 µM: LOX IMVI melanoma
23.7 µM: ACHN renal
23.9 µM: SF-539 CNS
> 47.3 µM: MDA-MB-231 breast
> 58.8 µM: NCI/ADR-RES ovarian
> 86.2 µM: SK-MEL-5 melanoma
> 74.9 µM: RXF 393 renal
> 53.7 µM: SK-OV-3 ovarian
> 58.2 µM: U251 CNS
> 52.8 µM: UO-31 renal
35.9 µM: NCI-H23 lung
> 53.5 µM: OVCAR-8 ovarian
> 89.8 µM: DU-145 prostate
> 54.7 µM: CAKI-1 renal
> 61.6 µM: A498 renal | SN12C renal
> 39.9 µM: IGROV1 ovarian
> 54.2 µM: HCT-116 colon
31.7 µM: OVCAR-3 ovarian
36.1 µM: 786-0 renal
> 96.6 µM: NCI-H460 lung
68.8 µM: SNB-75 CNS
> 59.1 µM: NCI-H226 lung
not listed: HOP-92 NSCLC | MALME-3M melanoma
> 100 µM: all other assays above

COP(C)(=O)/C(Cc1ccccc1)=N\O (stereo not drawn)
not listed: 786-0 renal | A498 renal | EKVX NSCLC | MALME-3M melanoma | NCI-H522 lung | RXF 393 renal | SF-268 CNS | SF-539 CNS | BT-549 breast | KM12 colon | UACC-62 melanoma
> 100 µM: all other assays above
